Tests used:
Assay in all cases: CTG-3D luminescence at 96 h relative to day-0 seeding control (ratio to day 0); higher = more growth / less cytotoxicity; PDxO 3D drug screen, 96 h, CTG-3D normalised to day-0 seeding control.
HCI-024 = test system: HCI-024 (organoid from a breast cancer xenograft)
HCI-017.E2 = test system: HCI-017.E2 (organoid from an ER-positive breast cancer xenograft)
HCI-001 = test system: HCI-001 (organoid from a triple-negative breast cancer xenograft)
HCI-012 = test system: HCI-012 (organoid from a breast cancer xenograft)
HCI-005.E2 = test system: HCI-005.E2 (organoid from a breast cancer xenograft with a HER2-positive history)
HCI-003.E2 = test system: HCI-003.E2 (organoid from an ER-positive breast cancer xenograft)

COc1cc2c(Oc3ccc4[nH]c(C)cc4c3F)ncnc2cc1OCCCN1CCCC1 [cediranib]
CTG-3D luminescence at 96 h
Settings | 12.5 pM | 0.00025 µM | 0.005 µM | 0.1 µM | 1 µM | 10 µM | 100 µM | 625 fM
HCI-001, days in culture: 240 | 1.68 | 1.12 | 1.16 | 0.837 | 1.93 | 0.491 | 0.00478 | 1.37
HCI-001, days in culture: 260 | 1.84 | 0.917 | 1.79 | 1.4 | 1.81 | 0.0612 | 0.00103 | 1.3
HCI-001, days in culture: 269 | 1.74 | 2.02 | 1.64 | 2.09 | 2.09 | 0.00899 | -0.0128 | 1.63
HCI-001, days in culture: 327 | 1.52 | 1.34 | 1.78 | 1.71 | 1.48 | 0.433 | 0.00365 | 1.84
HCI-001, days in culture: 346 | 1.6 | 1.18 | 1.25 | 1.32 | 1.41 | 0.639 | 0.00677 | 1.33
HCI-001, days in culture: 364 | 1.33 | 1.06 | 1.55 | 1.18 | 1.23 | 0.264 | 0.00077 | 1.44
HCI-012, days in culture: 143 | 2.15 | 1.81 | 1.84 | 2.55 | 2.33 | 0.0236 | -0.00161 | 2
HCI-012, days in culture: 162 | 2.22 | 1.99 | 1.54 | 2.43 | 2.26 | 0.0254 | -0.00236 | 3.02
HCI-012, days in culture: 201 | 2.36 | 2.05 | 1.5 | 1.45 | 2.29 | 0.0167 | -0.00095 | 1.66
HCI-017.E2, days in culture: 85 | 2.93 | 3.39 | 2.44 | 2.78 | 2.18 | 2.05 | 0.00763 | 2.35
HCI-024, days in culture: 105 | 1.09 | 1.54 | 1.4 | 1.6 | 1.26 | 0.0298 | -0.000777 | 1.39
HCI-024, days in culture: 122 | 1.5 | 1.9 | 1.93 | 1.84 | 1.65 | 0.0558 | -0.000119 | 2.28
HCI-024, days in culture: 163 | 2.12 | 2.16 | 1.81 | 2.23 | 1.92 | 0.416 | 0.00136 | 2.19

CTG-3D luminescence at 96 h
Settings | 12.5 pM | 0.00025 µM | 0.005 µM | 0.1 µM | 1 µM | 10 µM | 100 µM | 625 fM
HCI-003.E2 | 2.13 | 2.53 | 2.12 | 2.33 | 1.95 | 0.251 | 0.0212 | 2.18
HCI-005.E2 | 1.5 | 1.54 | 1.77 | 1.68 | 1.11 | 0.322 | 0.0129 | 1.54
HCI-017.E2 | 1.74 | 2.27 | 2.12 | 2.09 | 1.751 | 1.81 | 0.00813 | 2.35

CCN1CCN(Cc2ccc(Nc3ncc(F)c(-c4cc(F)c5nc(C)n(C(C)C)c5c4)n3)nc2)CC1 [abemaciclib]
CTG-3D luminescence at 96 h
Settings | 12.5 pM | 0.00025 µM | 0.005 µM | 0.1 µM | 1 µM | 10 µM | 100 µM | 625 fM
HCI-001, days in culture: 240 | 1.34 | 0.584 | 0.704 | 0.897 | 1.37 | 0.799 | 0.012 | 1.47
HCI-001, days in culture: 260 | 2.51 | 1.22 | 1.6 | 1.75 | 1.37 | 1.23 | 0.00996 | 2.02
HCI-001, days in culture: 269 | 1.53 | 1.73 | 1.69 | 1.38 | 1.17 | 0.68 | 0.0115 | 1.67
HCI-001, days in culture: 327 | 1.46 | 1.41 | 1.87 | 1.58 | 1.36 | 1.12 | 0.0169 | 1.75
HCI-001, days in culture: 346 | 1.39 | 1.37 | 1.18 | 1.14 | 1.17 | 1.35 | 0.0179 | 1.19
HCI-001, days in culture: 364 | 1.39 | 1.1 | 1.38 | 0.914 | 0.909 | 1.22 | 0.0124 | 1.72
HCI-012, days in culture: 143 | 2.22 | 2.41 | 2.02 | 2.72 | 1.59 | 0.427 | 0.0151 | 1.94
HCI-012, days in culture: 162 | 2.88 | 2.54 | 2.02 | 3.34 | 1.83 | 1.5 | 0.0215 | 3.16
HCI-012, days in culture: 201 | 2.81 | 2.22 | 1.75 | 1.73 | 2.31 | 1.47 | 0.0218 | 1.65
HCI-017.E2, days in culture: 85 | 2.84 | 2.45 | 2.5 | 2.52 | 2.03 | 1.81 | 0.0118 | 3.16
HCI-024, days in culture: 105 | 1.51 | 1.33 | 1.28 | 1.48 | 1.25 | 0.994 | 0.0179 | 1.87
HCI-024, days in culture: 122 | 2.26 | 2.43 | 1.7 | 1.89 | 1.62 | 2.1 | 0.0233 | 3.21
HCI-024, days in culture: 163 | 1.45 | 2.01 | 1.71 | 2.45 | 1.94 | 1.38 | 0.0196 | 1.89

CTG-3D luminescence at 96 h
Settings | 12.5 pM | 0.00025 µM | 0.005 µM | 0.1 µM | 1 µM | 10 µM | 100 µM | 625 fM
HCI-003.E2 | 2.17 | 2.14 | 2.02 | 2.27 | 1.98 | 0.491 | 0.00596 | 1.87
HCI-005.E2 | 1.99 | 2.57 | 2.09 | 1.96 | 1.61 | 1.43 | 0.00876 | 2.12
HCI-017.E2 | 1.858 | 1.97 | 2.083 | 2.11 | 2.01 | 1.5 | 0.00884 | 2.33
